Results taken from PMC8429728, “TNK1 is a ubiquitin-binding and 14-3-3-regulated kinase that can be targeted to block tumor growth” (Nature Communications, 2021).
Like-named read-outs stand apart in the source and are kept apart here.

Assays:
Assay in all cases: biochemical
Parameters in all cases: Reaction Biology 371-kinase panel at Km ATP, per cent enzyme activity relative to DMSO, single dose in duplicate
Settings in all cases: duplicate measurements, Km ATP
c-Kit = c-Kit (Homo sapiens, UniProt P10721)
Method: (§1) To assess kinase selectivity, we screened TP-5801 (300 nM) against a panel of 371 kinases in vitro. […] In addition to TNK1, only 7 other kinases were inhibited by more than 90% (Supplementary Fig. 8 and Supplementary Data 2). […] The resulting % Enzyme activity (relative to DMSO controls) were plotted in GraphPad and IC50 values were determined by sigmoidal dose-response (variable slope) curve fits, with a bottom constraint of 0.

PIM2 = PIM2 (Homo sapiens, UniProt Q9P1W9)
Method: as §1

JAK1 = JAK1 (Homo sapiens, UniProt P23458)
Method: as §1

TNIK = TNIK (Homo sapiens, UniProt Q9UKE5)
Method: as §1

NEK6 = NEK6 (Homo sapiens, UniProt Q9HC98)
Method: as §1

STK32C/YANK3 = STK32C/YANK3 (Homo sapiens, UniProt Q86UX6)
Method: as §1

MST3/STK24 = MST3/STK24 (Homo sapiens, UniProt Q9Y6E0)
Method: as §1

ALK = ALK (Homo sapiens, UniProt Q9UM73)
Method: as §1

ROS/ROS1 = ROS/ROS1 (Homo sapiens, UniProt P08922)
Method: as §1

RSK1 = molecular target: T1, RSK1 (Homo sapiens, UniProt Q15418)
T1 construct: gene RPS6KA1
Method: as §1

FRK/PTK5 = FRK/PTK5 (Homo sapiens, UniProt P42685)
Method: as §1

TNK1 = molecular target: T2, TNK1 (Homo sapiens, UniProt Q13470)
T2 sequence (Q13470 1-666): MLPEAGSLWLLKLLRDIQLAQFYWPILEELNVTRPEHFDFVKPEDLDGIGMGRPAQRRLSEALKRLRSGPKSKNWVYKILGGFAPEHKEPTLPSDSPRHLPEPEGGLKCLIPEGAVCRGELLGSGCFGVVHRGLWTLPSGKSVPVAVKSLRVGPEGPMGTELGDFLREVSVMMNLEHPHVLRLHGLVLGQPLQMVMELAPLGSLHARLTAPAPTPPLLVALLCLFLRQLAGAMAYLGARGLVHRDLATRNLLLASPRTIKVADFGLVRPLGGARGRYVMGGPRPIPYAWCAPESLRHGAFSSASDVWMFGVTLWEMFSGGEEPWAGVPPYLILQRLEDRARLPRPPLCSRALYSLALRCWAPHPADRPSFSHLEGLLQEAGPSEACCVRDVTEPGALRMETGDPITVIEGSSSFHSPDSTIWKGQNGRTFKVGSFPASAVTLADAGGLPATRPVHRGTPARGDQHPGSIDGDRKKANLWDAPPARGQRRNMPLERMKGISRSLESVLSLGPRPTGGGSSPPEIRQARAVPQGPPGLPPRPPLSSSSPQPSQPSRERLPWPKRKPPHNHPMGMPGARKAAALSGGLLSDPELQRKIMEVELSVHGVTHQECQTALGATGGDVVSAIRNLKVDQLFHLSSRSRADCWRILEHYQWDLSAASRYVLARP
Method: as §1

STK25/YSK1 = STK25/YSK1 (Homo sapiens, UniProt O00506)
Method: as §1

MLCK2/MYLK2 = MLCK2/MYLK2 (Homo sapiens, UniProt Q9H1R3)
Method: as §1

PAK3 = PAK3 (Homo sapiens, UniProt O75914)
Method: as §1

[1] = read-out: % Enzyme Activity (relative to DMSO controls) / TP-0005801 (0.3µM) / Data 1
[2] = read-out: % Enzyme Activity (relative to DMSO controls) / TP-0005801 (0.3µM) / Data 2

JAK1, sequence (P23458 whole entry): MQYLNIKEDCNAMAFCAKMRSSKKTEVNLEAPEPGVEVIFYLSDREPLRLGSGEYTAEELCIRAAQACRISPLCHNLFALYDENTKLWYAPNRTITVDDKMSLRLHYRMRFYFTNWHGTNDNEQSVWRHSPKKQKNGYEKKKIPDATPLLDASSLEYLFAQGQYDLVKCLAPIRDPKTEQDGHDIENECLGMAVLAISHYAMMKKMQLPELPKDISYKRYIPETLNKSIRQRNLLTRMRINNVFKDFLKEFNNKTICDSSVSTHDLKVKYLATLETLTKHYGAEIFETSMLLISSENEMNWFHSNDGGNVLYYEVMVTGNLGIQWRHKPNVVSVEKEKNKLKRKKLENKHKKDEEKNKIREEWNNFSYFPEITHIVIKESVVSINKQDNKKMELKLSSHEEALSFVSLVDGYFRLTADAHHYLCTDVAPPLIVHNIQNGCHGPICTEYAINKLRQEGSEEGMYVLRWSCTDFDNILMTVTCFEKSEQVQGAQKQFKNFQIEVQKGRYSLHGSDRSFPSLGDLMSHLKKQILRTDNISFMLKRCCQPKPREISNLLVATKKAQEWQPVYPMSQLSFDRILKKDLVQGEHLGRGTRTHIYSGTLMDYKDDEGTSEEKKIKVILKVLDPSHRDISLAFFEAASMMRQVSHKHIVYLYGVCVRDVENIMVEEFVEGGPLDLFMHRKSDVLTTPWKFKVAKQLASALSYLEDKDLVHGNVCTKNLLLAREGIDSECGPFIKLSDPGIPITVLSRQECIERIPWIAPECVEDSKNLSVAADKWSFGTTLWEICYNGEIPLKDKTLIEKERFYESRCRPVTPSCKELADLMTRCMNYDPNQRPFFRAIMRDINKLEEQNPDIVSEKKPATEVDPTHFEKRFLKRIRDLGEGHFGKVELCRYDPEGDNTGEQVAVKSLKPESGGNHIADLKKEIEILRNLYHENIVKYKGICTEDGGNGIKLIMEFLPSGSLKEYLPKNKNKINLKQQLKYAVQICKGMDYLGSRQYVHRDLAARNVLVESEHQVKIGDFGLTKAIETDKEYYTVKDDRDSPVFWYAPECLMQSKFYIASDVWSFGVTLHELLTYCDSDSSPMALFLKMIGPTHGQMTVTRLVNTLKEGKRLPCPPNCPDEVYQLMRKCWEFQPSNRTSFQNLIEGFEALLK
MLCK2/MYLK2, sequence (Q9H1R3 whole entry): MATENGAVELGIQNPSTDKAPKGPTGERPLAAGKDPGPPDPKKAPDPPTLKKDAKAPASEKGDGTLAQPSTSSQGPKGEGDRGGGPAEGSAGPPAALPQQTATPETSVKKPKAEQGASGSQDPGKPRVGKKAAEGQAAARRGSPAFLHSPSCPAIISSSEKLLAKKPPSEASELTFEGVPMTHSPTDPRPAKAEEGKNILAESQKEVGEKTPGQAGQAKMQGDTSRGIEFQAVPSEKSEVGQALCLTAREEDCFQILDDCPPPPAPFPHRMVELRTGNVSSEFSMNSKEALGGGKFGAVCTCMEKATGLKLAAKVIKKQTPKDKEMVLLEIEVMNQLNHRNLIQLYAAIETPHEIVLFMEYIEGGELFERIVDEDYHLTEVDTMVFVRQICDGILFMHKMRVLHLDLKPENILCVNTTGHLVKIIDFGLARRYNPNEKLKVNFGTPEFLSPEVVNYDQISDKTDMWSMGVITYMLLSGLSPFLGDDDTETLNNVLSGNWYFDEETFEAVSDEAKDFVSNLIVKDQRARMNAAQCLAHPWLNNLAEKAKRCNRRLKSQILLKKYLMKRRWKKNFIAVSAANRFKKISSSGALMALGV
ALK, sequence (Q9UM73 whole entry): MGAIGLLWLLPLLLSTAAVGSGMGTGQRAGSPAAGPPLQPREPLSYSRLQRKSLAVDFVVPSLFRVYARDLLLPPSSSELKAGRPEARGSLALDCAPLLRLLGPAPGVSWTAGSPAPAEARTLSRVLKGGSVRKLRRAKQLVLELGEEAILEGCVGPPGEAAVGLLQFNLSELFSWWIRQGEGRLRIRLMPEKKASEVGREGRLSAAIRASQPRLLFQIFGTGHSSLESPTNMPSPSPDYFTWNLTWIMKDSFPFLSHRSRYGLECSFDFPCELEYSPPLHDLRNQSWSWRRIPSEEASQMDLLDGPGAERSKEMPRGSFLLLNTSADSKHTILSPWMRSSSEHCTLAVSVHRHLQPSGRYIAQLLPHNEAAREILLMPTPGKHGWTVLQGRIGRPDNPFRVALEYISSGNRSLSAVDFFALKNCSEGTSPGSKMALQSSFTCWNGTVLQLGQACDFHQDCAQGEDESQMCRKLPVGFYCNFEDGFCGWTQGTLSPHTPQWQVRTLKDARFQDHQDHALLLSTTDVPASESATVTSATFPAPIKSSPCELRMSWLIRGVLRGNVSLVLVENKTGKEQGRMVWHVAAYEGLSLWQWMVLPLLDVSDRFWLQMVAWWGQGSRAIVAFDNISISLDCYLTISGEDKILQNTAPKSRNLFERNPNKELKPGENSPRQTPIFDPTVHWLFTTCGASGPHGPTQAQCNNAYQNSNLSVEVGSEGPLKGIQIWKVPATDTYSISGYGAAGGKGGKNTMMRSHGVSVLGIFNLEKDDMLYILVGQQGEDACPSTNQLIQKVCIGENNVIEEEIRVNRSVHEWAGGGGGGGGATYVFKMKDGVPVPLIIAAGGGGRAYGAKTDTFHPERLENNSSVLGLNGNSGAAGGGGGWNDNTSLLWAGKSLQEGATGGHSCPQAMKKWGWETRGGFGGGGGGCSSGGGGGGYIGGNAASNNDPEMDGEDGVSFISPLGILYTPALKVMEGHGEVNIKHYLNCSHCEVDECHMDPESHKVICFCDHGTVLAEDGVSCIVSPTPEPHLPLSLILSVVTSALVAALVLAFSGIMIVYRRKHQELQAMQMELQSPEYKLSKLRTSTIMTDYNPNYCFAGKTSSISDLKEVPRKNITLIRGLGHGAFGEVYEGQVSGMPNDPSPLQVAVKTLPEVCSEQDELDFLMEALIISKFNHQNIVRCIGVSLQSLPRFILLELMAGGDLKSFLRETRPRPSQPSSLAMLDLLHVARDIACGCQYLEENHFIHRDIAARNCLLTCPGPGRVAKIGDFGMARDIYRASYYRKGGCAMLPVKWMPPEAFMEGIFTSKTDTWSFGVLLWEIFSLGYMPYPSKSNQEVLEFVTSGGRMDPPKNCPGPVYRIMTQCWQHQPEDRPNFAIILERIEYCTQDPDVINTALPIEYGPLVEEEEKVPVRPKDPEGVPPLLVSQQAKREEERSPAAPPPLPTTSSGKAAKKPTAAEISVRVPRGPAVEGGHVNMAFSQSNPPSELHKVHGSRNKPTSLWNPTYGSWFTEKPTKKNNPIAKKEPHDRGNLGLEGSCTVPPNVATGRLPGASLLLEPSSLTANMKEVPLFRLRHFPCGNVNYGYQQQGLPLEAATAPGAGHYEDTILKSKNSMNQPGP
PAK3, sequence (O75914 whole entry): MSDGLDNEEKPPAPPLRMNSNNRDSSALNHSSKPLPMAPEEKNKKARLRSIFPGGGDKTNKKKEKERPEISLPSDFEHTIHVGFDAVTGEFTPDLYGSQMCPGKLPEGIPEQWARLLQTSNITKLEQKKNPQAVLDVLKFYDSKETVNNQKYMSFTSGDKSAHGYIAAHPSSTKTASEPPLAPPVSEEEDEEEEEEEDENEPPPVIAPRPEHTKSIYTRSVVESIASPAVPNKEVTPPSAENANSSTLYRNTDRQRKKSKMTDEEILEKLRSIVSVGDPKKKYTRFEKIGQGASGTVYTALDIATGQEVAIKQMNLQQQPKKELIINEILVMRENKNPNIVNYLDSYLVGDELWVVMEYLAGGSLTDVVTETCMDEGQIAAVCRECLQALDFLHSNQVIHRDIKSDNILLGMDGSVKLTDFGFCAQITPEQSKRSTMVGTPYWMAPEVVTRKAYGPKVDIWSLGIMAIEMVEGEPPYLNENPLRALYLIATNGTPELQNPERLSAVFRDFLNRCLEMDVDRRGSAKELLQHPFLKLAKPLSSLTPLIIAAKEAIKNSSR
NEK6, sequence (Q9HC98 whole entry): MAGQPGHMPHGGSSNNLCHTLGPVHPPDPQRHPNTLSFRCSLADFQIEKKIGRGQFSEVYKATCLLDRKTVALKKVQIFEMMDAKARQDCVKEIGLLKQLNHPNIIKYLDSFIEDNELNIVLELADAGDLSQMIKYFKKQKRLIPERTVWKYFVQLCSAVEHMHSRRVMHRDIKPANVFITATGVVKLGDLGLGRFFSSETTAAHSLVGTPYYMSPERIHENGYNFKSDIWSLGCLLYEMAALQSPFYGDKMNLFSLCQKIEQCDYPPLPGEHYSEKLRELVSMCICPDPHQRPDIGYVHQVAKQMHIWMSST
T1 sequence (Q15418 whole entry): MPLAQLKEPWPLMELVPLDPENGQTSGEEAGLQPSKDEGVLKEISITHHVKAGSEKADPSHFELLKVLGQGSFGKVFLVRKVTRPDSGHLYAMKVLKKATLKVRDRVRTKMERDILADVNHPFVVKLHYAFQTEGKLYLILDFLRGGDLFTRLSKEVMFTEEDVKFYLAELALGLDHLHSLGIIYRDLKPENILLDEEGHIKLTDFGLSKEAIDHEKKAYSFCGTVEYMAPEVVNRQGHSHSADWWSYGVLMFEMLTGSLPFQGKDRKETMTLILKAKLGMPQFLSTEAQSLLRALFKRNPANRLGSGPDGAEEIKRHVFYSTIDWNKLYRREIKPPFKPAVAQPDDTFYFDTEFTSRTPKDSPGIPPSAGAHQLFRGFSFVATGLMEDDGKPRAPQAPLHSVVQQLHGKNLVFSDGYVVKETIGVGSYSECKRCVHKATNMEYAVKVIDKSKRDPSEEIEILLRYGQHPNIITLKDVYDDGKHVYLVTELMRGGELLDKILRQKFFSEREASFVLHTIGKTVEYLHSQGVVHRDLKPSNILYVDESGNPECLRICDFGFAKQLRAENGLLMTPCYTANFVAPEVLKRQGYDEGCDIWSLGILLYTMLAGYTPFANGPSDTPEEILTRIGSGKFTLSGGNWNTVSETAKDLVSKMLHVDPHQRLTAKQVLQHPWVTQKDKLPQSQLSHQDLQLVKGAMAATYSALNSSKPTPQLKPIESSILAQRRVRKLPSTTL

## COc1cc(N2CCN(C)CC2)c(C)cc1Nc1ncc(Br)c(Nc2cccnc2N(C)C)n1 [TP-5801]
c-Kit; [1]
  remaining activity at 0.3 µM: 85.3%
c-Kit; [2]
  remaining activity at 0.3 µM: 85.1%
PIM2; [1]
  remaining activity at 0.3 µM: 116%
PIM2; [2]
  remaining activity at 0.3 µM: 110%
JAK1; [1]
  remaining activity at 0.3 µM: 104%
JAK1; [2]
  remaining activity at 0.3 µM: 102%
TNIK; [1]
  remaining activity at 0.3 µM: 49.6%
TNIK; [2]
  remaining activity at 0.3 µM: 48.7%
NEK6; [1]
  remaining activity at 0.3 µM: 95.2%
NEK6; [2]
  remaining activity at 0.3 µM: 91.5%
STK32C/YANK3; [1]
  remaining activity at 0.3 µM: 90.2%
STK32C/YANK3; [2]
  remaining activity at 0.3 µM: 83.2%
MST3/STK24; [1]
  remaining activity at 0.3 µM: 106%
MST3/STK24; [2]
  remaining activity at 0.3 µM: 103%
ALK; [1]
  remaining activity at 0.3 µM: 3.64%
ALK; [2]
  remaining activity at 0.3 µM: 3.52%
ROS/ROS1; [1]
  remaining activity at 0.3 µM: 10.1%
ROS/ROS1; [2]
  remaining activity at 0.3 µM: 9.96%
RSK1; [1]
  remaining activity at 0.3 µM: 76.2%
RSK1; [2]
  remaining activity at 0.3 µM: 74.2%
FRK/PTK5; [1]
  remaining activity at 0.3 µM: 72%
FRK/PTK5; [2]
  remaining activity at 0.3 µM: 71%
TNK1; [1]
  remaining activity at 0.3 µM: 0.98%
TNK1; [2]
  remaining activity at 0.3 µM: 0.83%
STK25/YSK1; [1]
  remaining activity at 0.3 µM: 85.8%
STK25/YSK1; [2]
  remaining activity at 0.3 µM: 80.9%
MLCK2/MYLK2; [1]
  remaining activity at 0.3 µM: 104%
MLCK2/MYLK2; [2]
  remaining activity at 0.3 µM: 100%
PAK3; [1]
  remaining activity at 0.3 µM: 99%
PAK3; [2]
  remaining activity at 0.3 µM: 97.9%
